Broadly, the IC50 is the concentration that gives 50% inhibition. Read a high IC50 as weaker potency in that assay.

Our source for the IC50 values is PMC7168333, “5-(Carbamoylmethylene)-oxazolidin-2-ones as a Promising Class of Heterocycles Inducing Apoptosis Triggered by Increased ROS Levels and Mitochondrial Dysfunction in Breast and Cervical Cancer” (Biomedicines, 2020).

In one experiment the test system is HeLa cells. The experiment in a line: MTT cell viability assay, HeLa. It is filed as cell-based. The conditions noted are these: Homo sapiens, 72 h. As for the experimental part: Cell viability was assessed by using 3-(4,5-dimethylthiazol-2-y1)-2,5-diphenyltetrazolium bromide (MTT) assay (Sigma-Aldrich, Milan, Italy), as already reported. In brief, MCF-7 and HeLa cells (2 × 10^4 cells/well) were seeded in a 48-well plate and grown in complete medium overnight, then they were switched into DMEM-F12 supplemented with 2% FBS and treated with increasing concentrations (1, 10, 50, 75, and 100 µM) of different oxazolidin-2-ones derivatives (OA-OI) or doxorubicin for 72 h. Untreated cells were added with the vehicle (DMSO) and used as a control. After treatment, fresh MTT reagent (used at a final concentration of 0.5 mg/mL) was added, prolonging incubation for 2 h according to the manufacturer’s protocol. Absorbance at 570 nm was measured in each well, including controls, and every experiment was carried out in triplicate.
(§1) For each sample, mean absorbance was expressed as a percentage of the control and plotted vs. drug concentration, in order to determine the IC50 value (i.e., drug concentration able to decrease cell viability by 50% with respect to the control) for each cell line, generating a sigmoidal dose–response curve by the use of GraphPad Prism 7 software (GraphPad Inc., San Diego, CA, USA). Mean values and standard deviations (SD) of three independent experiments carried out in triplicate were reported. […]
For orientation: Formazan colour is commonly taken as a measure of viable cells.

A further experiment concerns MCF-7 cells. The experiment in a line: MTT cell viability assay, MCF-7. It is filed as cell-based. The conditions noted are these: Homo sapiens, MCF7, 72 h. How it is done:
Cell viability was assessed by using 3-(4,5-dimethylthiazol-2-y1)-2,5-diphenyltetrazolium bromide (MTT) assay (Sigma-Aldrich, Milan, Italy), as already reported. […] Untreated cells were added with the vehicle (DMSO) and used as a control. After treatment, fresh MTT reagent (used at a final concentration of 0.5 mg/mL) was added, prolonging incubation for 2 h according to the manufacturer’s protocol. Absorbance at 570 nm was measured in each well, including controls, and every experiment was carried out in triplicate.
as §1

For another experiment, the system named is MCF-10A cells. The experiment in a line: MTT cell viability assay, MCF-10A. The experiment is classed as cell-based, human. The note with it: Homo sapiens, MCF-10A, 72 h.

`COc1cccc2c1C(=O)c1c(O)c3c(c(O)c1C2=O)C[C@@](O)(C(=O)CO)C[C@@H]3O[C@H]1C[C@H](N)[C@H](O)[C@H](C)O1` [DOX, doxorubicin, reference compound]: the figures for the IC50 in the experiment on HeLa cells, with MCF-7 cells and with MCF-10A cells were 3.61 µM, 4.04 µM and 31.8 µM, respectively.

Regarding `CC1(C)/C(=C\C(=O)N2CCCCC2)OC(=O)N1Cc1ccccc1` [OA], the concentration for half-maximal inhibition (IC50) in the experiment with HeLa cells was found to be 52.5 µM; in the experiment on MCF-7 cells it was 56.9 µM; with MCF-10A cells, 414 µM.

On to `CC1(C)/C(=C/C(=O)N2CCCCC2)OC(=O)N1Cc1ccccc1` [OB], for which the IC50 with HeLa cells came out at 98.2 µM; in the experiment with MCF-7 cells, 122 µM; in the experiment with MCF-10A cells, 470 µM.

Take `CCN(CC)C(=O)/C=C1\OC(=O)N(Cc2ccccc2)C1(C)C` [OC]: the figures for the IC50 in the experiment on HeLa cells, in the experiment on MCF-7 cells and in the experiment with MCF-10A cells were 99.5 µM, 163 µM and 494 µM, respectively.

For the compound `CCCCN1C(=O)O/C(=C/C(=O)N2CCOCC2)C12CCCCC2` [OD], the 50% inhibitory concentration (IC50) with HeLa cells came to 154 µM; in the experiment with MCF-7 cells it was 338 µM; with MCF-10A cells, 506 µM.

As for `CCCCN1C(=O)O/C(=C\C(=O)N2CCOCC2)C12CCCCC2` [OE], the figures for the concentration for half-maximal inhibition (IC50) in the experiment with HeLa cells, in the experiment with MCF-7 cells and with MCF-10A cells were 129 µM, 304 µM and 978 µM, respectively.

As to `CC1(C)/C(=C\C(=O)N2CCOCC2)OC(=O)N1Cc1ccccc1` [OF], the IC50 was found to be 159 µM in the experiment on HeLa cells, 409 µM in the experiment with MCF-7 cells and 718 µM in the experiment on MCF-10A cells.

Regarding `CC1(C)/C(=C/C(=O)N2CCOCC2)OC(=O)N1Cc1ccccc1` [OG], the IC50 was determined as 134 µM with HeLa cells, 345 µM in the experiment on MCF-7 cells and 677 µM with MCF-10A cells.

Regarding `CCCCN1C(=O)O/C(=C/C(=O)N2CCOCC2)C1(C)CC` (stereo not drawn) [OH], the IC50 is 54.2 µM in the experiment with HeLa cells, 92.9 µM with MCF-7 cells and 319 µM with MCF-10A cells.
